Experimental data reported in US20140005260A1 (TRI-SERVICE GENERAL HOSPITAL, priority 2012, published 2014).

What was measured:
zebrafish embryos = experiment: Whole mount in situ hybridization (WISH) of snail, versican and cdh5 in zebrafish embryos; format: in vivo
Experimental: EGFR inhibitor AG 1478 (CalBiochem) was dissolved in DMSO and stocked as 1 mM at -20° C. […] Before use, the solution was re-dissolved at 65° C. for 1 h. In the control group, 100 embryos were placed in a 9 cm dish filled with a volume of 30 ml embryo medium containing 0.2 mM 1-phenyl-2-thio-urea (Sigma). […] Long-term treatment during 12-72 hpf included the specification stage of valve formation at 36-55 hpf and the invagination stage of valve formation at 55 hpf. Treatment during 12-48 hpf was used to examine the gene markers versican and cdh5 which expressed at the AVC. […] During mouse embryonic valve formation, Snail (Snail) in Snail family acts as the […] of cdh5 that inhibit the transcription of cdh5. […] WISH was performed as previously described (Nucleic Acids Res 2010; 38:4384-93). Riboprobe of cdh5 was prepared by cloning its partial DNA fragment, while riboprobe of versican was provided by […] (Nature 2003; 425:633-7). […] FIG. 7H).

EGFR = EGFR signaling in zebrafish embryos (EGFR dimers, EGFR phosphorylation, GSK3β); format: in vivo
[1] = system: zebrafish embryos Tg(cmlc2:HcRFP); experiment: In vivo observation of cardiac valve development in zebrafish embryos by HGM/2PF
Experimental: The zebrafish AB strain, as well as transgenic lines Tg(cmlc2:HcRFP) and Tg(cmlc2:EGFP), were cultured as previously described. Heart formation was observed under fluorescent stereomicroscopy (MZ Leica). […] The excitation source was a femtosecond Cr:forsterite laser with an output wavelength of 1230 nm. Second harmonic generation (SHG) and third harmonic generation (THG; J Struct Biol. 2004 147: 19-30) were applied to observe valve development in transgenic zebrafish Tg(cmlc2:HcRFP) in vivo. RFP marked the myocardial cells, while THG (410 nm) marked all cells in yellow, and SHG (615 nm) marked the skeletal and cardiac muscles in green. Paraffin sectioning with Hematoxylin and Eosin (H&E) staining was also used to perform histochemical analysis of the heart.
EGFR inhibitor AG 1478 (CalBiochem) was dissolved in DMSO and stocked as 1 mM at −20° C. […] Before use, the solution was re-dissolved at 65° C. for 1 h. In the control group, 100 embryos were placed in a 9 cm dish filled with a volume of 30 ml embryo medium containing 0.2 mM 1-phenyl-2-thio-urea (Sigma). […] Long-term treatment during 12-72 hpf included the specification stage of valve formation at 36-55 hpf and the invagination stage of valve formation at 55 hpf. Treatment during 12-48 hpf was used to examine the gene markers versican and cdh5 which expressed at the AVC.
By using HGH/2 PF to examine the zebrafish embryos derived from transgenic line Tg(cmlc2:HcRFP), the dynamics of valve development in vivo could easily be observed. For example, at 48 hpf, there was a single layer of cells in the endocardium at the AVC (FIG. 1A). […] Finally, at 87 hpf, the elongated structure was protruding towards the ventricle (FIG. 1C).

S-vcanb = experiment: Western blot of S-vcanb protein in zebrafish embryos; format: in vivo; settings: treated embryos
B16OVA [2] = experiment: MTT cell survival assay; format: cell-based, murine; settings: 24 hr
Experimental: (§1) […]. Data is represented as a percentage of the DMSO control (DMSO), which is set to 100% and is expressed as mean±SEM (n=3).
(§2) It is well known that the Versican V1 increases EGFR signaling. […]. […]. Cells were plated at a density of 1×10^4 per well in 96-well plates and incubated for 12-16 h to allow cells to adhere. After 24 h, 0.5 mg/mL 3-(4,5-dimethylthiazol-2-yl)-2,5-diphenyltetrazolium bromide (MTT; Sigma) was added, and the cells were incubated for 4 h. Following incubation, each well was added 100 μl of 10% SDS/0.01N HCl solution and shaking for 5 min. Then, the absorbance was measured at 570 nm. Results were representative of three independent experiments, each done in quintuplicate. […].

JC cell = experiment: MTT cell survival assay; format: cell-based, mouse; settings: 24 hr
Experimental: as §1, §2

B16OVA [3] = experiment: Versican V1, V2, Snail and E-cadherin protein level in treated cells; format: cell-based, murine; settings: 15 μM for 24 hr
Description: (§3) […]. […] […]. […] […].

4T-1 cells [4] = experiment: as above; format: cell-based, mouse; settings: 15 μM for 24 hr
Description: as §3

JC [5] = experiment: as above; format: cell-based, mouse; settings: 15 μM for 24 hr
Description: as §3

B16OVA cells = system: B16OVA cells
Experimental: (§4) For wound healing assays, B16OVA, JC or 4T-1 cells (1×10^6) were seeded onto 6-well plates in DMEM/RPMI 1640 medium and maintained at 37° C. until they reached 95% confluence. The monolayer of cells was wounded by a sterile pipette tip to create a 1-mm cell-free path. Culture medium was removed and the samples were washed with PBS, followed by culturing in DMEM/RPMI 1640 medium with 10 μg/ml of the Mitomycin C. Cells were photographed under a low-magnification microscope. […] The distances between the wounding centre and the front of the migrating cells (vertical axis) were measured for statistical analysis. […] To determine cell migration in the absence of cell proliferation, Mitomycin C was used to block mitosis and thus allowed the analysis of cell migration in the absence of cell proliferation.

B16OVA [6] = experiment: Level of AKT, pAKT, ERK and p-ERK in treated cells; format: cell-based, murine; settings: 15 μM, vs control cells
Description: (§5) […]. The EGFR signaling regulates cell proliferation through activates EGFR's intrinsic kinase and leads to activation of several downstream intracellular signaling pathways, including rat sarcoma-MAPK kinase (MEK)-extracellular-related kinase (ERK) and phosphoinositide 3-kinase (PI3K)-Akt pathways. It was reported the opposing effects of V1 and V2 on cell proliferation. […] […].

4T-1 cells [7] = experiment: Level of AKT, pAKT, ERK and p-ERK in treated cells; format: cell-based, mouse; settings: 15 μM, vs control cells
Description: as §5

JC [8] = experiment: Level of AKT, pAKT, ERK and p-ERK in treated cells; format: cell-based, mouse; settings: 15 μM, vs control cells
Description: as §5

JC cells [9] = experiment: Tumor growth in Balb/c mice after SC injection of treated JC cells; format: in vivo; settings: tumors from treated JC cells, vs control group and Mitomycin C-treated group
Description: […]. […] For each group of tumors, the average volume for 3 tumors is plotted. Bars=95% confidence intervals.
Balb/c mice were inoculated by SC injection into the flank with contorl-Mitomycin C- or Amiodarone-treated JC cells. Each group had 3 mice, which were assigned to experimental groups randomly. All the other mice were sacrificed 2 weeks after treatment. […].

JC cells [10] = settings: Mitomycin C alone, 10 μg/ml
Experimental: as §4

Cdh5 = experiment: Western blot of Cdh5 protein in zebrafish embryos; format: in vivo; settings: 1.5 ng injected at one cell stage, 72 hpf embryos
Experimental: Cdh5 antibody was used to detect the amount of Cdh5 protein expression by Western blot. The embryos were dechorionated and deyolked with two extra washing steps as described in Link et al. (BMC Dev Biol 2006; 6:1). Deyolked samples were dissolved in 2 μl of 2×SDS sample buffer for each embryo and incubated for 5 min at 95[…]. After full-speed centrifugation for 1 min in a microcentrifuge to remove insoluble particles, total proteins extracted from embryos were analyzed on a 12% SDS-PAGE gel, and Western blot analysis was performed (J Biol Chem 2011; 286:6855-64) using antiserum against mouse Cdh5 (15; 1:10,000). Anti-α-tubulin and anti-β-actin served as a protein loading control. Knockdown experiments were performed as follows: morpholino nucleic acid oligomers (MOs) were purchased from GeneTools (USA): vcana-MO ([…], SEQ ID NO: 1); s-vcanb-MO ([…], SEQ ID NO: 2); snai1b-MO ([…], SEQ ID NO: 3) (Development 134, 4073-4081, 2007); cdh5-MO ([…], SEQ ID NO: 4) (Developmental Dynamics. 2004. 231, 204-213; PloS One 2010. 5, e8807); troponin T2a, cardiac-MO (5′-[…]-3′, SEQ ID NO: 5) (Nat. Genet. 2002. 31, 106-110); and standard control-MO ([…], SEQ ID NO: 6). […]

COc1cc2ncnc(Nc3cccc(Cl)c3)c2cc1OC [AG1478]
cdh5 expression at the heart field (zebrafish embryos; 7 μM, embryos at 55 to 72 hpf): ectopic expression
snail1b expression (zebrafish embryos; 7 μM, embryos at 55 to 72 hpf): lost
activity of GSK3β (EGFR; AG1478 treatment, 7 μM): increased significantly
total level of GSK3β (EGFR; AG1478 treatment, 7 μM): unchanged

CCCCc1oc2ccccc2c1C(=O)c1cc(I)c(OCCN(CC)CC)c(I)c1 [Amiodarone]
endocardial cells at the AVC ([1]; 15 μM during 12-48 hpf): no difference between treated and untreated embryos
valve structure ([1]; 15 μM during 12-72 hpf): only a small aggregation of cells were seen at the upper valve site
cellular aggregation at the valve region ([1]; 15 μM during 12-87 hpf, compared to untreated embryos): almost no cellular aggregation at the valve region
snai1b mRNA expression at the AVC (zebrafish embryos; 15 μM, treated during 55-72 hpf, observed at 72 hpf): lost and decreased or even disappeared
vcana and s-vcanb expression at the heart field (zebrafish embryos; 72 hpf embryos): induced
snai1a mRNA expression in the heart (zebrafish embryos; treated during 55-72 hpf, observed at 72 hpf): still was not expressed in the heart
expression of S-vcanb protein (S-vcanb): increased
EGFR dimeration (EGFR; 72 hpf treated embryos): increased
activity of GSK3β (EGFR; Amiodarone treated embryos): increased significantly
total level of GSK3β (EGFR; Amiodarone treated embryos): unchanged
phosphorylation of EGFR (Tyr-845) (EGFR; treated embryos, dosage dependent manner): reduced
cell survival (MTT) (B16OVA [2]; 15 μM): did not influence
cell survival (MTT) (B16OVA [2]; 10˜30 μM): does not influence
cell survival (MTT) (JC cell; 15 μM): did not influence
cell survival (MTT) (JC cell; 10˜30 μM): does not influence
E-cadherin protein level (B16OVA [3]): increased significantly
Snail protein level (B16OVA [3]): greatly reduced
Versican V1 expression (B16OVA [3]): reduced
Versican V2 expression (B16OVA [3]; vs control cells): increased
E-cadherin protein level (4T-1 cells [4]): increased significantly
Snail protein level (4T-1 cells [4]): greatly reduced
Versican V1 expression (4T-1 cells [4]): no difference
Versican V2 expression (4T-1 cells [4]; vs control cells): increased
E-cadherin protein level (JC [5]): increased significantly
Snail protein level (JC [5]): greatly reduced
Versican V1 expression (JC [5]): reduced
Versican V2 expression (JC [5]; vs control cells): increased
morphological change (B16OVA cells; cells at a growing phase, vs control cells): appeared more stripe and spread out than control cells
phosphorylated AKT (B16OVA [6]): reduced greatly
phosphorylated ERK42/44 (B16OVA [6]): reduced greatly
total level of AKT (B16OVA [6]): unchanged
total level of ERK (B16OVA [6]): unchanged
phosphorylated AKT (4T-1 cells [7]): reduced greatly
phosphorylated ERK42/44 (4T-1 cells [7]): reduced greatly
total level of AKT (4T-1 cells [7]): unchanged
total level of ERK (4T-1 cells [7]): unchanged
phosphorylated AKT (JC [8]): reduced greatly
phosphorylated ERK42/44 (JC [8]): reduced greatly
total level of AKT (JC [8]): unchanged
total level of ERK (JC [8]): unchanged
tumor growth (JC cells [9]): grew slower

CO[C@@]12[C@H](COC(N)=O)C3=C(C(=O)C(C)=C(N)C3=O)N1C[C@@H]1N[C@@H]12 [Mitomycin C]
time course of wound closure (B16OVA cells; Mitomycin C alone, 10 μg/ml): did not affect the time course of wound closure
time course of wound closure (JC cells [10]): did not affect the time course of wound closure

snail1b-MO: morpholino nucleic acid oligomer TTGACAAGA AATGAGCGTGGCATCT, SEQ ID NO: 3 (antisense TTGACAAGAAATGAGCGTGGCATCT; all phosphorodiamidate morpholino (PMO))
expression of Cdh5 protein relative to wild-type (Cdh5): 1.5 fold
